Key:
[1] = target: T1, Neutrophil elastase (Homo sapiens, UniProt P08246); format: tissue-based;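 further: inhibition of neutrophil elastase enzyme activity, measured with a p-nitroanilide-linked peptide substrate; in other assays of this panel Not Active means under 50% inhibition at 10 µM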
T1 sequence (P08246 whole entry): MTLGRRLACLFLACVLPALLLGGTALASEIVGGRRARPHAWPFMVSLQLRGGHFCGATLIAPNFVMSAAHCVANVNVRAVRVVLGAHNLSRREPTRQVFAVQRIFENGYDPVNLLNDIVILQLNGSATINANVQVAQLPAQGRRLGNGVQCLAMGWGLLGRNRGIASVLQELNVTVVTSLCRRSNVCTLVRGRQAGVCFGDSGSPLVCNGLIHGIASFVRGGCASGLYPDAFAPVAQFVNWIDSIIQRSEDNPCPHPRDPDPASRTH

[2] = target: T2, Leukotriene C4 synthase (Cavia porcellus, UniProt A6XA80); format: tissue-based, Lung;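 further: enzyme inhibition assay of leukotriene C4 synthase, using LTA4 as the substrate; in other assays of this panel Not Active means under 50% inhibition at 10 µM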
T2 sequence (A6XA80 whole entry): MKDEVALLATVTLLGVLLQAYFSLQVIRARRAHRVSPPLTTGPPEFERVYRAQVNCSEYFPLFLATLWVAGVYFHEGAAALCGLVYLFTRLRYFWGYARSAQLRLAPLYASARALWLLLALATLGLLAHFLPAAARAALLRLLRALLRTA

[3] = target: Voltage-gated inwardly rectifying potassium channel KCNH2 (Homo sapiens, UniProt Q12809); conditions: hek293; further: in other assays of this panel Not Active means under 50% inhibition at 10 µM
Chain of Voltage-gated inwardly rectifying potassium channel KCNH2 (Q12809 whole entry): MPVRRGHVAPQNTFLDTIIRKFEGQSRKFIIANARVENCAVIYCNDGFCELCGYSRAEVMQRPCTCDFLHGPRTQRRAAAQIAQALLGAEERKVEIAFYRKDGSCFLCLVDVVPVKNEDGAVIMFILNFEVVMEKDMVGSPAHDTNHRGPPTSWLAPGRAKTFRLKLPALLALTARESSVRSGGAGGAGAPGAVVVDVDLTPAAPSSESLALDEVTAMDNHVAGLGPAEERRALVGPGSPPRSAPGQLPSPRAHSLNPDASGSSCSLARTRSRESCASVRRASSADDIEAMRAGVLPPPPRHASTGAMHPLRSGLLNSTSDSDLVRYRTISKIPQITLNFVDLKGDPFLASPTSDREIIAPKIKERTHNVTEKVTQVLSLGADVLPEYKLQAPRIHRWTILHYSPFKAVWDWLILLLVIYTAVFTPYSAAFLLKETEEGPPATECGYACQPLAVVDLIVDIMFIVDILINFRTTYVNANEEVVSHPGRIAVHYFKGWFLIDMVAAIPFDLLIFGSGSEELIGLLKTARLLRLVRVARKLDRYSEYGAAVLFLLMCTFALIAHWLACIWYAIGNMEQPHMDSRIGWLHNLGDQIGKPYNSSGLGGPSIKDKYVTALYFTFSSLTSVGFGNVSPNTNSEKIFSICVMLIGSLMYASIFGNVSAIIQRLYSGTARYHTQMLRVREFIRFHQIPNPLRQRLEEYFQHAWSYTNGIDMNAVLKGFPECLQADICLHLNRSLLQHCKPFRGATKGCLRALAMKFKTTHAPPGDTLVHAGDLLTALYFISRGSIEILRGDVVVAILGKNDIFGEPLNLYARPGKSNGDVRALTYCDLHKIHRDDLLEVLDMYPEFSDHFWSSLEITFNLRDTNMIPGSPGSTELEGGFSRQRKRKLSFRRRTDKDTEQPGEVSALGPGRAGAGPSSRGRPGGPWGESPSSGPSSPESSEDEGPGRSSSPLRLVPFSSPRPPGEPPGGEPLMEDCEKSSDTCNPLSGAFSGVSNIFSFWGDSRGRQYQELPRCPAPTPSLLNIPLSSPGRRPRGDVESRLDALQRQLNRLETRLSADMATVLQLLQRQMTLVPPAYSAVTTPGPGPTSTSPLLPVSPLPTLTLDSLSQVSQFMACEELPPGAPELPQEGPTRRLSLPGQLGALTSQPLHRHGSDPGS

[4] = target: T3, Substance-K receptor (Homo sapiens, UniProt P21452); format: cell membranes, CHO, Membrane; conditions: cho; further: in other assays of this panel Not Active means under 50% inhibition at 10 µM
T3 sequence (P21452 whole entry): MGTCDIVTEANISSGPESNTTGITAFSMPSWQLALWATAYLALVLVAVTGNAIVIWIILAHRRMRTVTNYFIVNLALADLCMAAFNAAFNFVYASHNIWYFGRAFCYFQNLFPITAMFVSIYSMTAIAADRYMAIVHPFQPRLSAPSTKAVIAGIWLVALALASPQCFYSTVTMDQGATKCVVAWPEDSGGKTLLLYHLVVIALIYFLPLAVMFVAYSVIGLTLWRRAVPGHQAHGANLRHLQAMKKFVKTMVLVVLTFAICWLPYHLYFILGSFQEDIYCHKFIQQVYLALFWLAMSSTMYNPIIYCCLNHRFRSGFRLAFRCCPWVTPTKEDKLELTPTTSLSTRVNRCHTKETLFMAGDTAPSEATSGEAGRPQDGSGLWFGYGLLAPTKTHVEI

[5] = DRUGMATRIX: Calcium Channel Type L, Benzothiazepine radioligand binding (ligand: [3H] Diltiazem); format: cell membranes, Rattus norvegicus, Wistar, Brain, Membrane; conditions: Not Active = under 50% inhibition at 10 µM
[6] = DRUGMATRIX: Serotonin (5-Hydroxytryptamine) 5-HT3 radioligand binding (ligand: [3H] GR-65630); format: cell membranes, Membrane; conditions: hek293; Not Active = under 50% inhibition at 10 µM

Cc1ccc2cc3c(ccc4ccccc43)c3c2c1CC3 [3-METHYLCHOLANTHRENE]
Not Active: IC50 [1] | IC50 [2] | IC50 [3] | Ki [3] | IC50 [4] | IC50 [5] | Ki [5] | IC50 [6] | Ki [6]

CC[C@@]1(O)C[C@H](O[C@H]2C[C@H](N(C)C)[C@H](O[C@H]3C[C@H](O)[C@H](O[C@H]4CCC(=O)[C@H](C)O4)[C@H](C)O3)[C@H](C)O2)c2c(cc3c(c2O)C(=O)c2c(O)cccc2C3=O)[C@H]1C(=O)OC [ACLARUBICIN]
Not Active: IC50 [1] | IC50 [2] | IC50 [3] | Ki [3] | IC50 [4] | IC50 [5] | Ki [5] | IC50 [6] | Ki [6]

Cc1c(C)c2c(c(C)c1O)CC[C@@](C)(CCC[C@H](C)CCC[C@H](C)CCCC(C)C)O2 [ALPHA-TOCOPHEROL]
Not Active: IC50 [1] | IC50 [2] | IC50 [3] | Ki [3] | IC50 [4] | IC50 [5] | Ki [5] | IC50 [6] | Ki [6]

CN(C)c1nc(N(C)C)nc(N(C)C)n1 [ALTRETAMINE]
Not Active: IC50 [1] | IC50 [2] | IC50 [3] | Ki [3] | IC50 [4] | IC50 [5] | Ki [5] | IC50 [6] | Ki [6]

Nc1c(Br)cc(Br)cc1CN[C@H]1CC[C@H](O)CC1 [AMBROXOL]
Not Active: IC50 [1] | IC50 [2] | IC50 [3] | Ki [3] | IC50 [4] | IC50 [5] | Ki [5] | IC50 [6] | Ki [6]

NCCCCCC(=O)O [AMINOCAPROIC ACID]
Not Active: IC50 [1] | IC50 [2] | IC50 [3] | Ki [3] | IC50 [4] | IC50 [5] | Ki [5] | IC50 [6] | Ki [6]

CCC1(c2ccc(N)cc2)CCC(=O)NC1=O (stereo unspecified) [AMINOGLUTETHIMIDE]
Not Active: IC50 [1] | IC50 [2] | IC50 [3] | Ki [3] | IC50 [4] | IC50 [5] | Ki [5] | IC50 [6] | Ki [6]

Cc1ccc(/N=C/N(C)/C=N/c2ccc(C)cc2C)c(C)c1 [AMITRAZ]
Not Active: IC50 [1] | IC50 [2] | IC50 [3] | Ki [3] | IC50 [4] | IC50 [5] | Ki [5] | IC50 [6] | Ki [6]

COc1ccc(C[C@H]2NC[C@H](O)[C@H]2OC(C)=O)cc1 [ANISOMYCIN]
Not Active: IC50 [1] | Ki [1] | IC50 [2] | Ki [2] | IC50 [3] | Ki [3] | IC50 [4] | Ki [4] | IC50 [5] | Ki [5] | IC50 [6] | Ki [6]

Nc1ncn([C@@H]2O[C@H](CO)[C@@H](O)[C@H]2O)c(=O)n1 [AZACITIDINE]
Not Active: IC50 [1] | IC50 [2] | IC50 [3] | Ki [3] | IC50 [4] | IC50 [5] | Ki [5] | IC50 [6] | Ki [6]

CN(C)C(=O)Oc1cc(OC(=O)N(C)C)cc(C(O)CNC(C)(C)C)c1 (stereo unspecified) [BAMBUTEROL]
Not Active: IC50 [1] | IC50 [2] | IC50 [3] | Ki [3] | IC50 [4] | IC50 [5] | Ki [5] | IC50 [6] | Ki [6]

c1ccc2c(c1)c1cccc3ccc4cccc2c4c31 [BENZO[E]PYRENE]
Not Active: IC50 [1] | IC50 [2] | IC50 [3] | Ki [3] | IC50 [4] | IC50 [5] | Ki [5] | IC50 [6] | Ki [6]

CNCCc1ccccn1 [BETAHISTINE]
Not Active: IC50 [1] | IC50 [2] | IC50 [3] | Ki [3] | IC50 [4] | IC50 [5] | Ki [5] | IC50 [6] | Ki [6]

CC(C)C(Br)C(=O)NC(N)=O (stereo unspecified) [BROMISOVALUM]
Not Active: IC50 [1] | IC50 [2] | IC50 [3] | Ki [3] | IC50 [4] | IC50 [5] | Ki [5] | IC50 [6] | Ki [6]

CCCC1O[C@@H]2C[C@H]3[C@@H]4CCC5=CC(=O)C=C[C@]5(C)[C@H]4[C@@H](O)C[C@]3(C)[C@]2(C(=O)CO)O1 (stereo partly specified) [BUDESONIDE]
Not Active: IC50 [1] | IC50 [2] | IC50 [3] | Ki [3] | IC50 [4] | IC50 [5] | Ki [5] | IC50 [6] | Ki [6]

CN(Cc1ccc(C(C)(C)C)cc1)Cc1cccc2ccccc12 [BUTENAFINE]
Not Active: IC50 [1] | IC50 [2] | IC50 [3] | Ki [3] | IC50 [4] | IC50 [5] | Ki [5] | IC50 [6] | Ki [6]

C[C@H](CS)C(=O)N1CCC[C@H]1C(=O)O [CAPTOPRIL]
Not Active: IC50 [1] | IC50 [2] | IC50 [3] | Ki [3] | IC50 [4] | IC50 [5] | Ki [5] | IC50 [6] | Ki [6]

Cc1ccc(-c2cc(C(F)(F)F)nn2-c2ccc(S(N)(=O)=O)cc2)cc1 [CELECOXIB]
Not Active: IC50 [1] | IC50 [2] | IC50 [3] | Ki [3] | IC50 [4] | IC50 [5] | Ki [5] | IC50 [6] | Ki [6]

O=C(O)CCCc1ccc(N(CCCl)CCCl)cc1 [CHLORAMBUCIL]
Not Active: IC50 [1] | IC50 [2] | IC50 [3] | Ki [3] | IC50 [4] | IC50 [5] | Ki [5] | IC50 [6] | Ki [6]

C[C@H](CCC(=O)O)[C@H]1CC[C@H]2[C@@H]3[C@H](O)C[C@@H]4C[C@H](O)CC[C@]4(C)[C@H]3C[C@H](O)[C@]12C [CHOLIC ACID]
Not Active: IC50 [1] | IC50 [2] | IC50 [3] | Ki [3] | IC50 [4] | IC50 [5] | Ki [5] | IC50 [6] | Ki [6]

Cc1cc(C2CCCCC2)n(O)c(=O)c1 [CICLOPIROX]
Not Active: IC50 [1] | IC50 [2] | IC50 [3] | Ki [3] | IC50 [4] | IC50 [5] | Ki [5] | IC50 [6] | Ki [6]

CC1=C2C(=CO[C@H](C)[C@H]2C)C(O)=C(C(=O)O)C1=O [CITRININ]
Not Active: IC50 [1] | IC50 [2] | IC50 [3] | Ki [3] | IC50 [4] | IC50 [5] | Ki [5] | IC50 [6] | Ki [6]

CC(C)(C)NCC(O)c1cc(Cl)c(N)c(Cl)c1 (stereo unspecified) [CLENBUTEROL]
Not Active: IC50 [1] | IC50 [2] | IC50 [3] | Ki [3] | IC50 [4] | IC50 [5] | Ki [5] | IC50 [6] | Ki [6]

CC(C)(Oc1ccc(Cl)cc1)C(=O)O [CLOFIBRIC ACID]
Not Active: IC50 [1] | IC50 [2] | IC50 [3] | Ki [3] | IC50 [4] | IC50 [5] | Ki [5] | IC50 [6] | Ki [6]

Clc1cccc(Cl)c1NC1=NCCN1 [CLONIDINE]
Not Active: IC50 [1] | IC50 [2] | IC50 [3] | Ki [3] | IC50 [4] | IC50 [5] | Ki [5] | IC50 [6] | Ki [6]

Cc1cc(C(C#N)c2ccc(Cl)cc2)c(Cl)cc1NC(=O)c1cc(I)cc(I)c1O (stereo unspecified) [CLOSANTEL]
Not Active: IC50 [1] | IC50 [2] | IC50 [3] | Ki [3] | IC50 [4] | IC50 [5] | Ki [5] | IC50 [6] | Ki [6]

Cc1onc(-c2ccccc2Cl)c1C(=O)N[C@@H]1C(=O)N2[C@@H]1SC(C)(C)[C@@H]2C(=O)O [CLOXACILLIN]
Not Active: IC50 [1] | IC50 [2] | IC50 [3] | Ki [3] | IC50 [4] | IC50 [5] | Ki [5] | IC50 [6] | Ki [6]
